# Experimental data: a melting point compilation (Tetko et al.; mined from patent text by program, amines drawn as free bases though some values may be those of a salt)
row,Compound,melting point [°C]
1,Nc1ncc(-c2cccc(Nc3ccc(-c4ccoc4)cc3N)c2)cn1,208 to 209
2,CCOC(=O)C1(c2ccc(Cl)cc2)OCC(c2ccc(F)cc2)(c2ccc(F)cc2)CO1,150
3,Cc1cc(-c2ccc(Cl)cc2)cn2c(-c3nc(-c4ccc(S(N)(=O)=O)cc4)no3)cnc12,311
4,Cc1c(C)c(N2CCN(c3ccc(C(F)(F)F)cc3)CC2)c(C)c2c1OC(C)(C)C2N1CCCC1 (stereo unspecified),140 to 141
5,CCOC(=O)/C=C/c1ccc(C#Cc2ccc3c(c2)C(C)(C)CCC3(C)C)cc1,116 to 118
6,"CCCN1C(=O)CC2CCC(C)C3CCC4(C)OOC23C1O4 (single isomer, unassigned; (-))",125 to 126
7,COC(=O)c1ccc(Cn2nc(O)c3ccc(NC(=O)CC4CCCC4)cc32)c(OC)c1,242 to 245
8,COc1cccc(OC)c1C(=O)P(=O)(c1ccccc1)c1ccccc1,124 to 126
9,O=C1CCN(C(=O)c2ccc(Cl)cc2Cl)c2cc(Cl)ccc21,159 to 163
10,CC(O)c1cc(-c2ccc(Cl)cc2)no1 (stereo unspecified),141 to 143
11,COc1cc(CC2SC(=O)NC2=O)ccc1OCCN1c2ccccc2Sc2ccccc21 (stereo unspecified),46 to 48
12,CCCc1nc2c(N)nc3cc(F)ccc3c2o1,184 to 187
13,CCn1c2c(c(=O)c3cc(C(C)C)ccc31)Cc1cc(C)sc1-2,168 to 169
14,CC(=O)C12CC(C(C)=O)(C1)C2,67 to 69
15,O=C(O)c1cc(F)c(F)c(Br)c1Cl,138 to 140
16,CCCOCCOC(=O)C1=C(C)NC(C)=C(P(=O)(OC(C)C)OC(C)C)C1c1cccc([N+](=O)[O-])c1 (stereo unspecified),125 to 126
17,C=CCn1c(C)nc2c3c(c(C(=O)OC)cc21)CCC1(Cc2ccccc2C1)N3,142
18,CC1CCCN(S(=O)(=O)c2ccc(OC(C)C)c(C(=O)O)c2)C1 (stereo unspecified),102 to 104

row,Compound,melting point [°C]
1,O=c1[nH]c(=O)n(CCCCN2CCC(OC(c3ccccc3)c3ccccc3)CC2)c2cc([N+](=O)[O-])ccc12,214 to 215
2,CC(C)(C(=O)NC1CCCCC1)c1ccc(S(=O)(=O)/C=C/C#N)cc1,191 to 193
3,CCOC(=O)c1cncc(-c2cnc3c(c2)N(Cc2cc(F)ccc2F)CCN3)c1,169 to 172
4,Cc1ccc(OCCCCCCN2CCN(c3nccs3)CC2)cc1,37 to 39
5,CC1(C)CCC(C)(C)c2c(OCc3ccc(F)cc3)cc(C(=O)/C=C/c3ccc(C(=O)O)cc3)cc21,241
6,C[C@@H]1CSC(=O)[C@@H]2CCCN2C1=O,98 to 101
7,Oc1ccc2c(C3CCCCC3)nsc2c1,190
8,COC(CNC(=O)CCN1C(=O)N(C)C(=O)C1(C)C)OC,86.4
9,CC(=O)C(C(=O)c1ccc(Cl)cc1)C(=O)c1ccc(C(F)(F)F)cc1[N+](=O)[O-] (stereo unspecified),102 to 104
10,N#CC(c1ccc(Cl)c(Cl)c1)c1c(Cl)cc(NN)cc1Cl (stereo unspecified),183 to 185
11,CNC(=O)N1CCC(=NO)c2cc(Cl)ccc21,211 to 212
12,Cc1coc2c1C(=O)CC(c1cccs1)C2 (stereo unspecified),81 to 82
13,COc1nc(C)nc(NN)c1Cl,153 to 154
14,CNc1ccc(C(=O)OC)c(OC)n1,120 to 122
15,CC(C)(C)[Si](OCCOc1ccc(/C=C/C(=O)O)c(Oc2ncc(C(F)(F)F)cc2Cl)c1)(c1ccccc1)c1ccccc1,153
16,COc1cc(Nc2nc3cccc(-c4ccc(N)cc4)c3o2)cc(OC)c1OC,192 to 196
17,CC(=O)NC[C@H]1CN(c2ccc(C3=CCCN(C(=O)OC(C)(C)C)CC3)c(F)c2)C(=O)O1,164 to 165

# The remaining lines, values ahead:
row,melting point [°C],Compound
1,229 to 232,O=C(O)C1CC(=O)N(c2ccccc2)C1c1cccnc1 (stereo unspecified)
2,238 to 239,CC(C)(C)OC(=O)Nc1ccc(CN2C(=O)C3(COc4cc5c(cc43)OCCO5)c3ccccc32)cn1 (stereo unspecified)
3,83 to 84,Cc1ccc(S(=O)(=O)OC2CC(=O)N(Cc3ccccc3)C2)cc1 (stereo unspecified)
4,135 to 137,C[N+]1([O-])CC(c2ccccn2)C(=O)c2cc(Cl)ccc21 (stereo unspecified)
5,188 to 189,CC(C)n1nc(-c2nc(NCCN(C)C)c(N)nc2-c2ccccc2)ccc1=O
6,195,Cc1c(-c2ccccc2)c(OCc2ncnn2C)nn2c(-c3ccccc3)nnc12
7,165 to 167,O=c1cc(-c2ccccc2)cc2n1CCN2Cc1ccccc1
8,306 to 308,O=c1cc(-c2ccc(O)cc2)oc2ccncc12
9,119 to 121,Cc1cccc(C2CNCCN2C(=O)N(c2ccccc2)c2ccccc2)c1 (stereo unspecified)
10,58 to 60,CCN(CCOc1cccnc1F)CCN1C(=O)c2ccccc2C1=O
11,140 to 145,C=CCOC(=O)c1ccc(C(=O)NCc2ccc3c(c2CO)C(C)(C)CCC3(C)C)cc1
12,255 to 257,Cc1nc(N)nc(N)c1N1CCN(c2ccc(C=NOCC(=O)OCCc3ccccc3)cc2)CC1
13,141 to 143,[N-]=[N+]=NC1CCc2ccccc2N(c2ccccc2)C1=O (stereo unspecified)
14,194 to 195,Cc1sc(N)nc1-c1cccc2ccccc12
15,177,O=C(NCc1ccncc1)c1ccccc1
16,223 to 226,Cc1nnc2cc(-c3ccncc3)ccn12
